Reference: the NIST ThermoML archive (doi:10.1021/acs.jced.8b00176)

Test: xn = mol fraction of the nth substance listed
Details: 100 kPa, Liquid; for viscosity: Falling or rolling sphere viscometry; for speed of sound: Frequency=3 MHz, Single path-length method; for mass density: Vibrating tube method

CCCCn1cc[n+](C)c1.O=S(=O)([O-])C(F)(F)F [1-butyl-3-methylimidazolium trifluoromethanesulfonate] + CN(C)C=O
Details	mass density, 313.15 K [kg/m3]	mass density, 318.15 K [kg/m3]	mass density, 323.15 K [kg/m3]	speed of sound, 313.15 K [m/s]	speed of sound, 318.15 K [m/s]	speed of sound, 323.15 K [m/s]	viscosity, 313.15 K [mPa·s]	viscosity, 318.15 K [mPa·s]	viscosity, 323.15 K [mPa·s]
x1 = 0.1087	1027.69	1022.88	1018.08	1398.1	1381.2	1364.5	1.44	1.34	1.26
x1 = 0.203	1085.84	1081.13	1076.42	1390.4	1375	1359.6	2.64	2.4	2.2
x1 = 0.2978	1129.15	1124.56	1119.97	1381.4	1367	1352.6	3.81	3.47	3.17
x1 = 0.409	1168.33	1163.87	1159.41	1373.6	1360.1	1346.7	6.01	5.41	4.88
x1 = 0.4969	1193.03	1188.67	1184.31	1369.7	1356.8	1344	8.71	7.74	6.89
x1 = 0.603	1217.94	1213.69	1209.43	1365.6	1353.3	1341.1	13.22	11.6	10.21
x1 = 0.699	1237.03	1232.85	1228.67	1363	1351.2	1339.5	19.53	16.84	14.64
x1 = 0.809	1256.31	1252.21	1248.11	1361.7	1350.3	1339.1	29.38	24.86	21.29
x1 = 0.8928	1269.5	1265.45	1261.4	1360.9	1349.7	1338.7	37.11	31.09	26.39
x1 = 1	1285.47	1281.47	1277.48	1360.7	1349.9	1338.8	43.67	36.29	30.57
